What was measured:
[1] = tested on: human kidney tubule cells; experiment: ELISA of cytokines from human kidney tubule cells; format: cell-based; conditions: for IL-8: 0 μM gives 1.8 ± 0.3; for IL-6: 0 μM gives 2.4 ± 0.4; for TNF: 0 μM gives 10.1 ± 2; for GMCSF (pg/ml/ml): 0 μM gives 71.3 ± 23; for Fibronectin: 0 μM gives 75.2 ± 29
Description: Human renal cortical tissue (10 g) was minced finely, washed several times and agitated for 20 minutes at 37° C. in a Krebs-Henseleit buffer (KHB) containing collagenase type II (1 mg/mL), Cold KHB was added and the solution passed through a 297 μm sieve (50 Mesh, Sigma). After washing three times the tubular fragments were re-suspended in 45% percoll-KHB and centrifuged at 20000×g. A high density band, previously shown to be tubule fragments, was removed and cultured in a serum free, hormonally defined DMEM/F12 media (containing 10 ng/mL epidermal growth factor, 5 μg/mL insulin, […] transferrin, 50 nM hydrocortisone, […] prostaglandin E1, 50 nM selenium and 5 pM triiodothyronine). All experiments were performed on confluent passage 2 HTEC made quiescent by two washes followed by incubation for 24 h in serum and growth factor free DMEM/F12 media. These cells were incubated with C3aR agonists and antagonists.
Supernatant and lysates from cell culture treatment samples were collected and stored separately at −20° C. until further use. Human IL1B, IL8, IL6 and TNF levels were determined using the respective OptEIA™ ELISA kit (BD Biosciences, San Diego, USA) according to the manufacturer's instructions. The readings were recorded on a FLUOstar Optima (BMG LabTechnologies, Offenburg, Germany).

C3aR = target: T1, C3aR (Homo sapiens, UniProt Q16581); experiment: Calcium mobilization assay in HMDM (agonist/antagonist activity); format: cell-based; conditions: Table 9, Ca^2+ mobilization, HMDM
T1 construct: peripheral blood mononuclear cells were isolated from buffy coat (obtained from Australian Red Cross Blood Service, Kelvin Grove); endogenous in cells; host or cells: primary human monocyte-derived macrophages (HMDM) differentiated from CD14+ monocytes of donor buffy coat
T1 sequence (Q16581 1-482): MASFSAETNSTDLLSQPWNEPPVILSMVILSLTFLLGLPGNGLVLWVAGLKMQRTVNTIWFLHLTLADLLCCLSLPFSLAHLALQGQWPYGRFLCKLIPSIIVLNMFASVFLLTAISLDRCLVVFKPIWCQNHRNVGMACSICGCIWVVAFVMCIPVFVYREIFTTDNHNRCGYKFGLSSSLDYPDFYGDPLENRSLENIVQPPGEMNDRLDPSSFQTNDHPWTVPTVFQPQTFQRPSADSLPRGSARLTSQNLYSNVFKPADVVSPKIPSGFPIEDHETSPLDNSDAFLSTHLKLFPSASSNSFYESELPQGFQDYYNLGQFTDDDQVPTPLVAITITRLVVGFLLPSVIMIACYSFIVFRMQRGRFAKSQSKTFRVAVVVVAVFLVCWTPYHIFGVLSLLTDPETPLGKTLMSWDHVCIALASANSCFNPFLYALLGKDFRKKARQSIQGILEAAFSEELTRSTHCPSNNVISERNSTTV
Method in brief: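 Human monocyte-derived macrophages, 5×10^4 cells/well, loaded 1 h at 37 °C with 4 μM Fluo-3 in HBSS/HEPES/probenecid buffer, pH 7.4. Agonist mode: calcium release read 300 s; antagonist mode: 900 s compound preincubation then agonist, read 300 s (ex 485/em 520 nm); compared with hC3a.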

CC(C)C[C@H](NC(=O)c1c[nH]c2ccccc12)c1nc(C(=O)N[C@@H](CCCNC(=N)N)C(=O)O)co1 [Compound 8, 3-Indole Carboxylic Acid-Leucine-Oxazole-Arginine-OH]
IL-8 ([1]; compound 8 at 1 μM): 1.9 ± 0.4 ng/mL | IL-6 ([1]; compound 8 at 1 μM): 2.5 ± 0.1 ng/mL | TNF ([1]; compound 8 at 1 μM): 9.9 ± 1 pg/mL | GMCSF (pg/ml/ml) ([1]; compound 8 at 1 μM): 74.6 ± 7.1 pg/ml/ml | Fibronectin ([1]; compound 8 at 1 μM): 89.6 ± 11 ng/mL | IL-8 ([1]; compound 8 at 2.5 μM): 5.7 ± 2 ng/mL | IL-6 ([1]; compound 8 at 2.5 μM): 8.2 ± 0.6 ng/mL | TNF ([1]; compound 8 at 2.5 μM): 12.3 ± 1 pg/mL | GMCSF (pg/ml/ml) ([1]; compound 8 at 2.5 μM): 142.8 ± 10.9 pg/ml/ml | Fibronectin ([1]; compound 8 at 2.5 μM): 89.0 ± 5 ng/mL | IL-8 ([1]; compound 8 at 5 μM): 31.5 ± 5 ng/mL | IL-6 ([1]; compound 8 at 5 μM): 30.9 ± 2.5 ng/mL | TNF ([1]; compound 8 at 5 μM): 76.6 ± 13 pg/mL | GMCSF (pg/ml/ml) ([1]; compound 8 at 5 μM): 738.0 ± 127.6 pg/ml/ml | Fibronectin ([1]; compound 8 at 5 μM): 149.5 ± 21 ng/mL | IL-8 ([1]; compound 8 at 10 μM): 30.4 ± 8 ng/mL | IL-6 ([1]; compound 8 at 10 μM): 33.5 ± 5 ng/mL | TNF ([1]; compound 8 at 10 μM): 117.8 ± 53 pg/mL | GMCSF (pg/ml/ml) ([1]; compound 8 at 10 μM): 1056 ± 147.8 pg/ml/ml | Fibronectin ([1]; compound 8 at 10 μM): 172.9 ± 20 ng/mL | IL-8 ([1]; compound 8 at 20 μM): 76.4 ± 18 ng/mL | IL-6 ([1]; compound 8 at 20 μM): 55.8 ± 12 ng/mL | TNF ([1]; compound 8 at 20 μM): 277.9 ± 28 pg/mL | GMCSF (pg/ml/ml) ([1]; compound 8 at 20 μM): 2853 ± 399 pg/ml/ml | Fibronectin ([1]; compound 8 at 20 μM): 200.9 ± 28 ng/mL | Induction at 40 μM, Fibronectin ([1]; compound 8 at 40 μM vs 0 μM): 2-fold | Induction at 40 μM, GMCSF ([1]; compound 8 at 40 μM vs 0 μM): 80-fold | Induction at 40 μM, IL-6 ([1]; compound 8 at 40 μM vs 0 μM): 40-fold | Induction at 40 μM, IL-8 ([1]; compound 8 at 40 μM vs 0 μM): 75-fold | Induction at 40 μM, TNF ([1]; compound 8 at 40 μM vs 0 μM): 75-fold | IL-8 ([1]; compound 8 at 40 μM): 135.0 ± 9 ng/mL | IL-6 ([1]; compound 8 at 40 μM): 96.9 ± 29 ng/mL | TNF ([1]; compound 8 at 40 μM): 757.8 ± 13 pg/mL | GMCSF (pg/ml/ml) ([1]; compound 8 at 40 μM): 5790 ± 726 pg/ml/ml | Fibronectin ([1]; compound 8 at 40 μM): 148.0 ± 32 ng/mL | Secretion of inflammatory cytokines ([1]; primary human kidney cells): induces secretion of inflammatory cytokines | pEC50 ± SEM (C3aR): 8.15 ± 0.10 | EC50 (C3aR; read-out: EC50): 7.2 nM

From patent publication US9586914B2, “Modulators of C3a receptors” (THE UNIVERSITY OF QUEENSLAND, priority 2011, dated 2017)
